# Patent US20130029928A1 (priority 2010, published 2013)
# Where two headings read alike, the source gives them in different places.
# Assay: Phase I study CXR1002-001: plasma pharmacokinetics (LC-MS/MS)
# Type: in vivo, human
# Conditions: human, plasma, plasma; for concentration at 336 hr: 336 hr (Day 15)
# Text: PK samples, PD (fasting) samples, blood glucose, and blood triglyceride samples, were taken over a 6-week period.
# Dose limiting toxicity (DLT) will be based on the toxicity assessments over the first 3-week period of the repeat dosing schedule. PK samples (single blood sample) were taken on the following basis: • Every 6 weeks during the repeat dosing phase • If dosing is interrupted or stopped, samples will be taken at intervals according to patient convenience • PK sampling for safety evaluation may take place at any time, as clinically indicated
# Plasma samples were collected after the single 50 mg dose at the following timepoints: Pre-dose, and then 0.25, 0.5, 0.75, 1, 1.5, 2, 3, 4, 6, 24, 48, and 72 hours after administration and then once weekly at weeks 2, 3, 4, 5, and 6 (days 8, 15, 22, 29, and 36). For patients treated with the weekly repeat dose, plasma samples were collected at the following timepoints: Pre-dose and then 2, 3, 4 and 24 hours after administration for a total of 6 weeks. Thereafter a single sample was collected every 6 weeks for monitoring of exposure during long term treatment. Plasma samples were processed at site and stored at −80° C. prior to batch shipment to the analytical laboratory.
structure (smiles),measurement,setting,value
O=C(O)C(F)(F)C(F)(F)C(F)(F)C(F)(F)C(F)(F)C(F)(F)C(F)(F)F [CXR1002],concentration at 4 hr,"oral, 1200 mg, Patient 034, 1200 mg, person, 4 hr, read-out: Concentration",560 µM
same,concentration at 24 hr,"oral, 1200 mg, Patient 034, 1200 mg, person, 24 hr (Day 2), read-out: Concentration",409 µM
same,concentration at 168 hr,"oral, 1200 mg, Patient 034, 1200 mg, person, 168 hr (Day 8), read-out: Concentration",351 µM
same,concentration at 170 hr,"oral, 1200 mg, Patient 034, 1200 mg, person, 170 hr, read-out: Concentration",893 µM
same,concentration at 171 hr,"oral, 1200 mg, Patient 034, 1200 mg, person, 171 hr, read-out: Concentration",771 µM
same,concentration at 172 hr,"oral, 1200 mg, Patient 034, 1200 mg, person, 172 hr, read-out: Concentration",730 µM
same,concentration at 192 hr,"oral, 1200 mg, Patient 034, 1200 mg, person, 192 hr (Day 9), read-out: Concentration",722 µM
same,concentration at 336 hr,"oral, 1200 mg, Patient 034, 1200 mg, person, read-out: Concentration",644 µM
same,concentration at 338 hr,"oral, 1200 mg, Patient 034, 1200 mg, person, 338 hr, read-out: Concentration",1030 µM
same,concentration at 339 hr,"oral, 1200 mg, Patient 034, 1200 mg, person, 339 hr, read-out: Concentration",1120 µM
same,concentration at 340 hr,"oral, 1200 mg, Patient 034, 1200 mg, person, 340 hr, read-out: Concentration",955 µM
same,concentration at 360 hr,"oral, 1200 mg, Patient 034, 1200 mg, person, 360 hr (Day 16), read-out: Concentration",1020 µM
same,concentration at 504 hr,"oral, 1200 mg, Patient 034, 1200 mg, person, 504 hr (Day 22), read-out: Concentration",924 µM
same,concentration at 506 hr,"oral, 1200 mg, Patient 034, 1200 mg, person, 506 hr, read-out: Concentration",1350 µM
same,concentration at 507 hr,"oral, 1200 mg, Patient 034, 1200 mg, person, 507 hr, read-out: Concentration",1220 µM
same,concentration at 508 hr,"oral, 1200 mg, Patient 034, 1200 mg, person, 508 hr, read-out: Concentration",1440 µM
same,concentration at 528 hr,"oral, 1200 mg, Patient 034, 1200 mg, person, 528 hr (Day 23), read-out: Concentration",1360 µM
same,concentration at 672 hr,"oral, 1200 mg, Patient 034, 1200 mg, person, 672 hr (Day 29), read-out: Concentration",1080 µM
same,concentration at 674 hr,"oral, 1200 mg, Patient 034, 1200 mg, person, 674 hr, read-out: Concentration",1310 µM
same,concentration at 675 hr,"oral, 1200 mg, Patient 034, 1200 mg, person, 675 hr, read-out: Concentration",1450 µM
same,concentration at 676 hr,"oral, 1200 mg, Patient 034, 1200 mg, person, 676 hr, read-out: Concentration",1380 µM
same,concentration at 696 hr,"oral, 1200 mg, Patient 034, 1200 mg, person, 696 hr (Day 30), read-out: Concentration",1310 µM
same,concentration at 2 hr,"oral, 1200 mg, Patient 035, 1200 mg, person, 2 hr, read-out: Concentration",298 µM
same,concentration at 3 hr,"oral, 1200 mg, Patient 035, 1200 mg, person, 3 hr, read-out: Concentration",196 µM
same,concentration at 4 hr,"oral, 1200 mg, Patient 035, 1200 mg, person, 4 hr, read-out: Concentration",317 µM
same,concentration at 24 hr,"oral, 1200 mg, Patient 035, 1200 mg, person, 24 hr (Day 2), read-out: Concentration",261 µM
same,concentration at 168 h,"oral, 1200 mg, Patient 035, 1200 mg, person, 168 hr (Day 8), read-out: Concentration",254 µM
same,concentration at 170 h,"oral, 1200 mg, Patient 035, 1200 mg, person, 170 hr, read-out: Concentration",460 µM
same,concentration at 171 h,"oral, 1200 mg, Patient 035, 1200 mg, person, 171 hr, read-out: Concentration",479 µM
same,concentration at 172 h,"oral, 1200 mg, Patient 035, 1200 mg, person, 172 hr, read-out: Concentration",592 µM
same,concentration at 192 h,"oral, 1200 mg, Patient 035, 1200 mg, person, 192 hr (Day 9), read-out: Concentration",543 µM
same,concentration at 336 hr,"oral, 1200 mg, Patient 035, 1200 mg, person, read-out: Concentration",476 µM
same,concentration at 338 hr,"oral, 1200 mg, Patient 035, 1200 mg, person, 338 hr, read-out: Concentration",570 µM
same,concentration at 339 hr,"oral, 1200 mg, Patient 035, 1200 mg, person, 339 hr, read-out: Concentration",621 µM
same,concentration at 340 hr,"oral, 1200 mg, Patient 035, 1200 mg, person, 340 hr, read-out: Concentration",649 µM
same,concentration at 360 h,"oral, 1200 mg, Patient 035, 1200 mg, person, 360 hr (Day 16), read-out: Concentration",704 µM
same,concentration at 504 h,"oral, 1200 mg, Patient 035, 1200 mg, person, 504 hr (Day 22), read-out: Concentration",600 µM
same,concentration at 506 h,"oral, 1200 mg, Patient 035, 1200 mg, person, 506 hr, read-out: Concentration",774 µM
same,concentration at 507 h,"oral, 1200 mg, Patient 035, 1200 mg, person, 507 hr, read-out: Concentration",925 µM
same,concentration at 508 h,"oral, 1200 mg, Patient 035, 1200 mg, person, 508 hr, read-out: Concentration",1020 µM
same,concentration at 2 hr,"po, 1000 mg, Patient 041, 1000 mg weekly oral dose, Time 2 hr, read-out: Concentration (plasma level)",223 µM
same,concentration at 3 hr,"po, 1000 mg, Patient 041, 1000 mg weekly oral dose, Time 3 hr, read-out: Concentration (plasma level)",233 µM
same,concentration at 4 hr,"po, 1000 mg, Patient 041, 1000 mg weekly oral dose, Time 4 hr, read-out: Concentration (plasma level)",207 µM
same,concentration at 24 hr,"po, 1000 mg, Patient 041, 1000 mg weekly oral dose, Time 24 hr (Day 2), read-out: Concentration (plasma level)",175 µM
same,concentration at 168 hr,"po, 1000 mg, Patient 041, 1000 mg weekly oral dose, Time 168 hr (Day 8), read-out: Concentration (plasma level)",171 µM
same,concentration at 170 hr,"po, 1000 mg, Patient 041, 1000 mg weekly oral dose, Time 170 hr, read-out: Concentration (plasma level)",342 µM
same,concentration at 171 hr,"po, 1000 mg, Patient 041, 1000 mg weekly oral dose, Time 171 hr, read-out: Concentration (plasma level)",413 µM
same,concentration at 172 hr,"po, 1000 mg, Patient 041, 1000 mg weekly oral dose, Time 172 hr, read-out: Concentration (plasma level)",357 µM
same,concentration at 192 hr,"po, 1000 mg, Patient 041, 1000 mg weekly oral dose, Time 192 hr (Day 9), read-out: Concentration (plasma level)",396 µM
same,concentration at 336 h,"po, 1000 mg, Patient 041, 1000 mg weekly oral dose, Time 336 hr (Day 15), read-out: Concentration (plasma level)",294 µM
same,concentration at 338 hr,"po, 1000 mg, Patient 041, 1000 mg weekly oral dose, Time 338 hr, read-out: Concentration (plasma level)",411 µM
same,concentration at 339 hr,"po, 1000 mg, Patient 041, 1000 mg weekly oral dose, Time 339 hr, read-out: Concentration (plasma level)",485 µM
same,concentration at 340 hr,"po, 1000 mg, Patient 041, 1000 mg weekly oral dose, Time 340 hr, read-out: Concentration (plasma level)",478 µM
same,concentration at 360 hr,"po, 1000 mg, Patient 041, 1000 mg weekly oral dose, Time 360 hr (Day 16), read-out: Concentration (plasma level)",508 µM
same,concentration at 504 hr,"po, 1000 mg, Patient 041, 1000 mg weekly oral dose, Time 504 hr (Day 22), read-out: Concentration (plasma level)",558 µM
same,concentration at 506 hr,"po, 1000 mg, Patient 041, 1000 mg weekly oral dose, Time 506 hr, read-out: Concentration (plasma level)",674 µM
same,concentration at 507 hr,"po, 1000 mg, Patient 041, 1000 mg weekly oral dose, Time 507 hr, read-out: Concentration (plasma level)",748 µM
same,concentration at 508 hr,"po, 1000 mg, Patient 041, 1000 mg weekly oral dose, Time 508 hr, read-out: Concentration (plasma level)",676 µM
